Laboratory results taken from paper PMC8904554, “Discovery of antimicrobials by massively parallelized growth assays (Me^x)” (Scientific Reports, 2022).
Where two headings read alike, the source gives them in different places. Ends that are not written are not given here.

What was measured:
E. coli TOP10 = test: microbe, parasite or virus in culture; assay type: cell-based, Escherichia coli; conditions: for MIC [µM] 25%MHB: 25% (diluted) Mueller-Hinton Broth; for MIC [µM] 25%MHB / MIC [µM] 100%MHB: 5 × 10^5 cells ml^−1, twofold dilutions, 18 h, 37 °C, no shaking, OD read-out, MIC = < 5% of OD of growth control, mean, n = 3; for MIC [µM] 100%MHB: 100% Mueller-Hinton Broth; for MIC: Escherichia coli, TOP10, read-out: MIC of ampicillin (control) against E. coli TOP10, control
Experimental: On the same day at which MIC assays were executed, purified peptides were thawed and the concentration was determined by HPLC as described before. […] The cultures were then supplemented with 20% glycerol, aliquoted, and frozen at − 80 °C. […] Then the peptides were added by the liquid handling system in twofold dilutions using minimum of 100 µg ml^−1 as the highest concentration. MICs were determined as broth microdilution assay in 384-well flat bottom polypropylene plates (Falcon 96-Well Flat-Bottom Microplate) adapted from the protocol of Wiegand et al.[43]. The plates were sealed airtight and incubated for 18 h without shaking at 37 °C before reading the OD using a Tecan Infinite 200 PRO plate reader. […] MIC experiments were performed at least in triplicate.

human erythrocytes = test: Hemolysis assay using chemically synthesized peptides; assay type: cell-based; conditions: for Hemolysis at 16MIC: peptide at 16 × MIC; for Hemolysis at 16MIC / Hemolysis at MIC: human erythrocytes 1:50 in DPBS, 1 h, 37 °C, absorbance 540 nm, relative to full lysis with […] Triton-X100, n = 4; for Hemolysis at MIC: peptide at MIC; for hemolytic activity, in words: MIC/16 to 16 × MIC; as to Hemolysis at 16MIC: relative to full lysis with 2.5% Triton-X100
Experimental: Two samples of human blood were obtained from a blood bank (Blutspendezentrum SRK at the University Hospital Basel). The samples were pooled and erythrocytes were isolated by repeated centrifugation at 500×g for 10 min, removal of the blood plasma and resuspending the remaining cells in an equal volume of DPBS. Following last resuspension, erythrocytes were diluted 1:50 in DPBS. […] To each well of the dilution plate, 100 μl of the red blood cells suspension was added. The plate was incubated for 1 h at 37 °C. […] The absorbance was measured at 540 nm using an Infinite M1000 PRO plate reader (Tecan) and corrected by the measurements from the untreated wells. The lysis of each peptide concentration was expressed relative to the lysis control (set as 100% lysis). […]

E. coli ATCC 25922 = assay type: cell-based; conditions: chemically synthesized peptide, mean, n = 3
Experimental: (§1) On the same day at which MIC assays were executed, purified peptides were thawed and the concentration was determined by HPLC as described before. E. coli TOP10 cells were grown in Mueller Hinton Broth (MHB) or diluted MHB (25% of the original strength) overnight to stationary phase. Diluted MHB has been frequently used to assay antimicrobial peptides. The cultures were then supplemented with 20% glycerol, aliquoted, and frozen at − 80 °C. […] Then the peptides were added by the liquid handling system in twofold dilutions using minimum of 100 µg ml^−1 as the highest concentration. MICs were determined as broth microdilution assay in 384-well flat bottom polypropylene plates (Falcon 96-Well Flat-Bottom Microplate) adapted from the protocol of Wiegand et al.[43]. The plates were sealed airtight and incubated for 18 h without shaking at 37 °C before reading the OD using a Tecan Infinite 200 PRO plate reader. […] MIC experiments were performed at least in triplicate.

[1] = test system: Pseudomonas aeruginosa ATCC 47085; assay type: cell-based; conditions: chemically synthesized peptide, mean, n = 3
Experimental: as §1

[2] = test system: Enterococcus faecalis ATCC 29212; assay type: cell-based; conditions: chemically synthesized peptide, mean, n = 3
Experimental: as §1

[3] = test system: Klebsiella pneumonia ATCC 13883; assay type: cell-based; conditions: chemically synthesized peptide, mean, n = 3
Experimental: as §1

[4] = test system: Staphylococcus aureus ATCC 29213; assay type: cell-based; conditions: chemically synthesized peptide, mean, n = 3
Experimental: as §1

[5] = Precipitation observed in the membrane damage assay; assay type: physicochemical; conditions: 100% MHB, printed as higher than 4xMIC (16 µM)
Experimental: The bacterial strain suspension was furthermore supplemented with a final concentration of 1 µg ml^−1 propidium iodide just before pipetting the assay. […] The fractions of PI-positive and GFP-positive were determined with the same gate for all populations using the FlowJo V10 software (BD Biosciences). The extracellular membrane integrity assay was performed in biological duplicates analyzing at least 10,000 cells in each experiment.

E.coli = test system: E.coli; design: method as in earlier work; conditions: ref supplement references 1-15 (Table S1); cited from earlier work
bacteria = test system: bacteria; design: method as in earlier work; conditions: ref supplement references 1-15 (Table S1); cited from earlier work

| Molecule | MIC [µM] 25%MHB (E. coli TOP10) [µM] | MIC [µM] 100%MHB (E. coli TOP10) [µM] | Hemolysis at 16MIC (human erythrocytes) [%] | Hemolysis at MIC (human erythrocytes) [%] | further results |
| --- | --- | --- | --- | --- | --- |
| CC[C@H](C)[C@H](NC(=O)[C@H](Cc1c[nH]c2ccccc12)NC(=O)[C@H](CCCCN)NC(=O)[C@@H](NC(=O)[C@H](CC(C)C)NC(=O)[C@H](CC(=O)O)NC(=O)CNC(=O)[C@@H](NC(=O)[C@@H](NC(=O)[C@H](CO)NC(=O)[C@@H](NC(=O)[C@@H](NC(=O)[C@H](CC(=O)O)NC(=O)[C@H](C)NC(=O)[C@H](C)NC(=O)[C@@H](N)CCSC)[C@@H](C)CC)[C@@H](C)CC)[C@@H](C)O)[C@@H](C)CC)C(C)C)C(=O)N[C@H](C(=O)N[C@@H](CC(=O)O)C(=O)N[C@H](C(=O)N[C@H](C(=O)N[C@@H](CC(N)=O)C(=O)N[C@@H](CCCCN)C(=O)N[C@@H](Cc1ccccc1)C(=O)N[C@@H](CCCCN)C(=O)O)C(C)C)[C@@H](C)O)[C@@H](C)CC [Delta lysin I 3458 NCBI] | > 60 | > 60 |  |  |  |
| CC1(C)S[C@@H]2[C@H](NC(=O)[C@H](N)c3ccccc3)C(=O)N2[C@H]1C(=O)O [ampicillin, reference compound] |  |  |  |  | MIC (E. coli TOP10; 25% MHB): 17 µM; MIC (E. coli TOP10; 100% MHB): 34 µM |
| AIAKLVAKFGWPIVKKYYKQIMQFIGEGWAINKIIEWIKK [Enterocin RJ-11 3780 NCBI] | 1 | 0.5 | 103.3 | 22.7 | hemolysis at the MIC compared to the Triton-X100 control (toxicity towards human erythrocytes) (human erythrocytes): > 5% |
| GFKDWIKGAAKKLIKTVASSIANE [Ascaphin-6 9286 APD] | 1 | 0.8 | 1.4 | 0 |  |
| GKFSGFAKILKSIAKFFKGVGKVRKGFKEASDLDKNQ [Oxyopinin 2b 9690 APD] | 0.5 | 0.5 | 63.4 | 0.7 | hemolytic activity, in words (human erythrocytes): displayed hemolytic activity at higher concentrations |
| GWFKKAWRKVKHAGRRVLDTAKGVGRHYLNNWLNRYR [HFIAP-1 4545 NCBI] | 0.5 | 0.5 | 18.9 | 4.1 | MIC [µm] in MHB (E. coli ATCC 25922): 0.7 µM; MIC [µm] in MHB [1]: 0.7 µM; MIC [µm] in MHB [2]: 5.6 µM; MIC [µm] in MHB [3]: 0.4 µM; MIC [µm] in MHB [4]: 1.4 µM; hemolytic activity, in words (human erythrocytes): displayed hemolytic activity at higher concentrations |
| KRFKKFFKKLKKSVKKRAKKFFKKPRVIGVSIPF [BF-CATH 9639 APD] | 1 | 1 | 4.8 | 2.1 |  |
| LKDKVKSMGEKLKQYIQTWKAKF [Latarcin 4a 5147 APD] | 5 | 8 | 2.8 | 0.2 |  |
| Melittin: highly membrane damaging peptide used as a control [reference compound] |  |  |  |  | hemolysis at the MIC compared to the Triton-X100 control (toxicity towards human erythrocytes) (human erythrocytes): > 5%; concentration above which the peptide started to precipitate [5]: > 16 µM |
| Pyrrhocoricin PARENT: PARENT peptide on the APD, a ribosomal inhibitor |  |  |  |  | Previously reported activity against E.coli of parent (E.coli): active; Reported antibacterial mechanism of action of parent (bacteria): Translation inhibition |
| TALKGAAKELASTYQH [Maximin 3 5468 NCBI] | > 60 | > 60 |  |  |  |
| VDKGGYLPRPTPPRPVYR [Pyrrhocoricin 7122 NCBI] | 8 | 20 | 2.3 | 1.1 |  |
| VKLIQIRIWIQYVTVLQMFSMKTKQ [Meucin-25 11598 APD] | > 60 | > 60 |  |  |  |
| VSKIKKYLKYKDRI [P-10 8942 APD] | 13 | > 60 | 2.2 | 0.5 |  |
